Measurements from patent US20080299195A1, “USE OF RANOLAZINE FOR ELEVATED BRAIN-TYPE NATRIURETIC PEPTIDE” (priority 2007, published 2008).

Tested on: patients with non-ST elevation ACS
Test: MERLIN-TIMI 36 trial: randomized, double-blind, placebo-controlled trial of ranolazine, stratified by baseline BNP
Format: in vivo, human
Settings: ranolazine vs placebo
Excerpt: Ranolazine is believed to exert anti-ischemic effects through a reduction in myocardial cellular sodium and calcium overload with a consequent reduction in wall stress. B-type natriuretic peptide (BNP) is released in response to increased wall stress and is a potent indicator of risk in acute coronary syndromes (ACS). This study was a prospective evaluation of the interaction between BNP and the effect of ranolazine as part of a randomized, double-blind, placebo-controlled trial.
Patients with a non-ST elevation acute coronary syndrome (NSTEACS), refers to patients with chest discomfort or anginal equivalent occurring at rest, lasting ≧10 minutes, and consistent with myocardial ischemia, and the presence of ischemic symptoms (≧5 minutes) at rest within 48 hours of admittance which may include index episode, and having at least one of the following indicators of moderate-high risk: • Elevated cardiac troponin (above local MI limit) or CK-MB (>ULN) • ST-depression (horizontal or down-sloping) >0.1 mV • Diabetes mellitus (requiring insulin or oral therapy) • A Risk Score of >3 wherein one point is assigned for each of the following variables and a total score calculated as the arithmetic sum: • Age >65 years; • Known CAD (prior MI, CABG, PCI or angiographic stenosis ≧50%); • Three or more cardiac risk factors (DM, elevated cholesterol, hypertension, family history); • More than one episode of ischemic discomfort at rest in the prior 24 hours; • Chronic aspirin use in the 7 days preceding onset of symptoms; • ST segment depression ≧0.05 mV; and • Elevated cardiac troponin or CK-MB.
Plasma BNP were measured (ADVIA® BNP) at baseline (N=4543), 14 days (N=4079), and the Final Visit (N=3328) of the patients with non-ST elevation ACS randomized to ranolazine or placebo in the MERLIN-TIMI 36 trial. During the trial 200 mg of ranolazine (or matching placebo) was administered intravenously over 1 hour, followed by an 80 mg/hr intravenous infusion, which was reduced to 40 mg/hr for patients with an estimated creatinine clearance of less than […] (<0.50 mL/s), and was continued for 12 to 96 hours. On or near the completion (about 1 hour before completion) of the infusion, transition from the IV solution to ranolazine extended release (or matching placebo) occurred and ranolazine extended release (or matching placebo) continued orally at a dose of 1000 mg twice daily until the end of the study. [Morrow, et al., J. Am. Med. Assoc'n. 297 (16), 1775-1783, 2007]. Patients were stratified using BNP >80 pg/mL based upon prior work with this assay. The primary endpoint of the trial was a composite of cardiovascular death, myocardial infarction, or recurrent ischemia (CVD/MI/RI).

## COc1ccccc1OCC(O)CN1CCN(CC(=O)Nc2c(C)cccc2C)CC1 (racemic) [ranolazine, (±)-N-(2,6-dimethylphenyl)-4-[2-hydroxy-3-(2-methoxyphenoxy)propyl]-1-piperazine-acetamide]
Patients with BNP>80 pg/mL, CI 0.35-0.84, p=0.005
  HR for endpoint component of worsening angina: 0.55
Patients with BNP>80 pg/mL, IV 200 mg over 1 h, then 80 mg/hr for 12 to 96 hours, then extended release 1000 mg twice daily orally, 95% CI 0.66-0.94, p=0.009
  HR for primary endpoint (composite of cardiovascular death, myocardial infarction, or recurrent ischemia, CVD/MI/RI): 0.79
Patients with a negative BNP result, p-interaction=0.052
  effect on primary endpoint (CVD/MI/RI): lack of detectable effect
95% CI 0.63-1.28, p=0.55, p-interaction 0.079
  HR for endpoint component of worsening angina: 0.90
